# Patent publication US11370785B2, “Multicyclic compounds as farnesoid X receptor modulators” (BRISTOL-MYERS SQUIBB COMPANY, priority 2017, dated 2022)
# Read-outs that look alike come from different tables or passages of the source.
# Legend:
# human FXR = target: T1, human FXR (Homo sapiens, UniProt Q96RI1); assay: transient human FXR/Gal4-luciferase reporter assay; assay type: cell-based; conditions: Gal4-hFXR reporter in HEK293 cells
# T1 construct: expressed in transfected cells; host or cells: HEK293 cells stably carrying a 5xGal4-response-element firefly luciferase reporter, transiently transfected with the pcDNA3.1-Gal4-FXR plasmid
# T1 sequence (Q96RI1 262-486 limits assumed): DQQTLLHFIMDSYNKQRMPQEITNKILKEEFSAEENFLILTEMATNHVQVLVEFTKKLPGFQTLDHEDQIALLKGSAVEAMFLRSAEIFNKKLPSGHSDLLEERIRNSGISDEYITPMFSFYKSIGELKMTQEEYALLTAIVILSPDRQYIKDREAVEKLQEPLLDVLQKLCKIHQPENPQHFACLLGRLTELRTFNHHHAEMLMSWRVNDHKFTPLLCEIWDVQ
# In short: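 HEK293 cells stably carrying a 5×Gal4-response-element firefly luciferase reporter, transiently transfected with a CMV-driven Gal4 DNA-binding domain–human FXR ligand-binding domain fusion, were treated overnight at 37 °C with serially diluted compounds. Luminescence was read by Steady-Glo; DMSO background was subtracted and signal expressed as percent of the 8 μM GW-4064 response.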
# Fgf15 = assay: Acute mouse in vivo assay, Fgf15 gene expression in ileum; conditions: 3 mg/kg single oral dose, @ 6 h
# Method: Acute Mouse In Vivo Assay:
# Male, C57BL6/NTac mice, weighing 25-28 g, are purchased from Taconic Labs (Hudson, N.Y.) and maintained on Teklad Global 18% Protein Rodent Diet (Harlan Laboratories). After 1 week acclimation, mice are sorted into groups based upon body weight. Mice are administered a single oral dose of vehicle or experimental compound. Systemic compound exposure is evaluated in plasma derived from blood collected via the submandibular vein at 1 hour post-dose, and at study termination (6 h). At study termination, the animals are euthanized and rapidly dissected. The medial lobe of the liver is divided, with one half being homogenized and analyzed for compound exposure, and the other half saved in RNAlater (Thermo-Fisher Scientific). The ileum is also dissected and preserved in RNAlater. Tissue samples in RNAlater are homogenized with MP Biomedicals' beads. […] RNA Concentration is determined with the Nano-Drop 8000 Spectrophotometer (Thermo Fisher). […] Mouse genes analyzed include Nr0b2 (which encodes the small heterodimer partner, SHP), Abcb11 (which encodes the bile salt excretion pump, BSEP), Cyp7a1, & Cyp8b1 in liver, and Fgf15, Fabp6 (which encodes ileal bile acid binding protein, I-BABP), Slc51a (which encodes organic solute transporter alpha subunit, OSTA), and Slc51b (which encodes organic solute transporter beta subunit, OSTB) in the ileum. […]
# [1] = relative to 8 μM GW-4064, read-out: FXR EC50
SMILES,EC50 (human FXR; read-out: HLE GAL-FXR EC50) [nM],"Fgf15 expression, fold increase relative to vehicle control (Fgf15)",EC50 (human FXR; [1]) [nM]
"O=C(O)c1cc(C(F)(F)F)c2cc(N3CCC4(CC3)CC(Cc3c(-c5ccccc5C(F)(F)F)noc3C3CC3)C4)ccc2n1 [Example 4, 6-(2-((5-Cyclopropyl-3-(2-(trifluoromethyl)phenyl)isoxazol-4-yl)methyl)-7-azaspiro[3.5]nonan-7-yl)-4-(trifluoromethyl)quinoline-2-carboxylic acid]",26,+24 x,–
CCc1cncc(Cl)c1-c1noc(C2CC2)c1C=C1CC2(CCN(c3ccc4nc(C(=O)O)cc(C(F)(F)F)c4c3)CC2)C1 [Example 166],–,–,30
O=C(O)c1cc2ccc(N3CCC4(CC3)CC(Cc3c(-c5ccccc5C(F)(F)F)noc3C3CC3)C4)cc2nn1 [Example 34],–,–,1350
O=C(O)c1cc(C(F)(F)F)c2cc(N3CCC4(CC3)CC(=Cc3c(-c5c(Cl)cncc5Cl)noc3C(F)(F)F)C4)ccc2n1 [Example 153],–,–,26
CC(C)Oc1cc(C(=O)O)nc2ccc(N3CCC4(CC3)CC(Cc3c(-c5ccccc5C(F)(F)F)noc3C3CC3)C4)cc12 [Example 84],–,–,19
O=C(O)c1cc(C(F)(F)F)c2cc(N3CCC4(CC3)CC(=Cc3c(-c5c(Cl)cccc5Cl)noc3C(F)(F)F)C4)ccc2n1 [Example 136],–,–,27
O=C(O)c1cc(F)c2nc(N3CCC4(CC3)CC(Cc3c(-c5c(Cl)cccc5Cl)noc3C3CC3)C4)sc2c1 [Example 11],–,–,44
O=C(O)c1cc(OC2CCCC2)c2cc(N3CCC4(CC3)CC(=Cc3c(-c5c(Cl)cncc5Cl)noc3C3CC3)C4)ccc2n1 [Example 125],–,–,15
Cn1nnc(-c2ccc(N3CCC4(CC3)CC(=Cc3c(-c5c(Cl)cccc5Cl)noc3C3CC3)C4)cc2)n1 [Example 53],–,–,908
O=C(O)c1ccc2sc(N3CCC4(CC3)CC(=Cc3c(-c5c(Cl)cncc5Cl)noc3C3CC3)C4)nc2c1 [Example 103],–,–,249
Cc1cc(C(=O)O)cc2sc(N3CCC4(CC3)CC(=Cc3c(C5CC5)nnn3-c3c(Cl)cccc3Cl)C4)nc12 [Example 20],–,–,252
COc1cc2nc(N3CCC4(CC3)CC(=Cc3c(-c5ccccc5C(F)(F)F)noc3C3CC3)C4)sc2cc1C(=O)O [Example 104],–,–,667
O=C(O)c1cc(OC2COC2)c2cc(N3CCC4(CC3)CC(Cc3c(-c5ccccc5C(F)(F)F)noc3C3CC3)C4)ccc2n1 [Example 138],–,–,23
